Test results: patent US20190381084A1, “COMBINATION THERAPY” (NUCANA BIOMED LIMITED, priority 2015, published 2019)
Like-named read-outs stand apart in the source and are kept apart here.

Assays:
5637 = test: Single agent cytotoxicity assay (CellTiter-Glo); assay type: cell-based; details: CTG assay, 72 h
Protocol: (§1) A2780, SK-OV-3, OVCAR-3, NCI-H460, NCI-H1975, NCI-H2122, 5637 and HT1376 were cultured in RPMI Medium 1640 (Invitrogen-22400105) supplemented with 10% fetal bovine serum (FBS; Invitrogen-10099141). All the cell lines were maintained in a humidified incubator at 37° C. with 5% CO2. Cell culture media and supplements were purchased from Invitrogen, and tissue culture flasks were purchased from Corning, 96-well plates and 384-well plates were purchased from Greiner. CellTiter-Glo Luminescent Cell Viability Assay kits were purchased from Promega (Promega-G7573), cells counter Vi-Cell was purchased from Beckman, detection instrument Envision was purchased from PerkinElmer.
(§2) Paclitaxcel (used as a reference) and cisplatin were purchased from SELLECK, and they were of highest purity available. All compounds attained solubility in DMSO and when diluted into culture media. DMSO, compounds solutions and culture media were warmed to 37° C. for the solution preparation and dilutions.
(§3) Eight cell lines were allowed to adhere to 96-well plates overnight (100 μL/well), for drug treatments with 3.16 fold dilution, 9 dose points, triplicates or vehicle control, compound stock solutions were prepared in DMSO and added to the wells to give the indicated final drug concentrations. Final DMSO concentration was 0.5%. Cellular ATP concentrations were assessed by using the CellTiter-Glo Cell Viability Assay as per the manufacturer's instructions 72 h after drug addition.
(§4) Stage 1: Single Agent IC50 Determination
(§5) In Stage 1 the IC50 (using 5 or more concentrations) of each individual compound cisplatin, carboplatin, gemcitabine and NUC-1031) in the relevant cell lines was determined.

A2780 = test: Single agent cytotoxicity assay (CellTiter-Glo); assay type: cell-based; details: CTG assay, 72 h; for IC50: Homo sapiens
Protocol: as §1, §2, §3, §4, §5

HT1376 = test: Single agent cytotoxicity assay (CellTiter-Glo); assay type: cell-based; details: 72 h; for IC50: Homo sapiens, HT-1376, CTG assay
Protocol: as §1, §2, §3, §4, §5

NCI-H1975 = test: Single agent cytotoxicity assay (CellTiter-Glo); assay type: cell-based; details: CTG assay, 72 h; for IC50: Homo sapiens
Protocol: as §1, §2, §3, §4, §5

NCI-H460 = test: Single agent cytotoxicity assay (CellTiter-Glo); assay type: cell-based; details: CTG assay, 72 h; for IC50: Homo sapiens
Protocol: as §1, §2, §3, §4, §5

OVCAR-3 = test: Single agent cytotoxicity assay (CellTiter-Glo); assay type: cell-based; details: CTG assay, 72 h; for IC50: Homo sapiens
Protocol: as §1, §2, §3, §4, §5

SK-OV-3 = test: Single agent cytotoxicity assay (CellTiter-Glo); assay type: cell-based; details: 72 h; for IC50: Homo sapiens, SK-OV-3, SK-OV3, CTG assay
Protocol: as §1, §2, §3, §4, §5

[1] = ProGem1 phase I study in subjects with advanced solid malignancies; assay type: in vivo, human
Source text: ProGem1 was a first-time-in-human (FTIH), phase I, open label, two stage study to investigate the safety, tolerability, clinical efficacy, pharmacokinetics (PK) and pharmacodynamics (PD) of NUC-1031 given in two parallel dosing schedules in subjects with advanced solid malignancies (EudraCT Number: 2011-005232-26). Subjects had the following tumour types at study entry: colorectal cancer (7 subjects), unknown primary (3), ovarian cancer (12), breast cancer (4), pancreatic cancer (9), cholangiocarcinoma (7), endometrial cancer (3), cervical cancer (2), lung cancer (7), mesothelioma (3), oesophageal cancer (3), cancer of the fallopian tube (1), trophoblast (1), renal cancer (1), gastric cancer (1), anal cancer (1), cancer of the thymus (1) and osteosarcoma (1).

Q: What does the source list for `C[C@H](NP(=O)(OC[C@H]1O[C@@H](n2ccc(N)nc2=O)C(F)(F)[C@@H]1O)Oc1ccccc1)C(=O)OCc1ccccc1` (stereo partly drawn) [NUC-1031, 2′-Deoxy-2′,2′-difluoro-D-cytidine-5′-O-[phenyl (benzoxy-L-alaninyl)] phosphate]?
A: Max Inhibition_% 5637: 77.88%; IC50 (5637; read-out: Ab IC50): 200 nM; IC50 (5637; read-out: relative IC50): 120 nM; Max Inhibition_% (A2780): 79.15%; IC50 (A2780; read-out: Ab IC50): 25 nM; IC50 (A2780; read-out: relative IC50): 16 nM; Max Inhibition_% (HT1376; CTG assay): −2.54%; IC50 (HT1376; read-out: Ab IC50): > 1980 nM; IC50 (HT1376; read-out: relative IC50): > 1980 nM; Max Inhibition_% (NCI-H1975): 37.91%; IC50 (NCI-H1975; read-out: Ab IC50): > 1980 nM; IC50 (NCI-H1975; read-out: relative IC50): 370 nM; Max Inhibition_% (NCI-H460): 91.98%; IC50 (NCI-H460; read-out: Ab IC50): 40 nM; IC50 (NCI-H460; read-out: relative IC50): 40 nM; Max Inhibition_% (OVCAR-3): 11.76%; IC50 (OVCAR-3; read-out: Ab IC50): > 1980 nM; IC50 (OVCAR-3; read-out: relative IC50): 200 nM; IC50 (SK-OV-3; read-out: Ab IC50): 70 nM; IC50 (SK-OV-3; read-out: relative IC50): 60 nM; Max Inhibition_% (SK-OV-3; SK-OV3, CTG assay): 61.59%; anti-tumour activity ([1]; patients with advanced progressive cancers who exhausted standard options): anti-tumour activity; levels of toxic metabolite dFdU released relative to gemcitabine ([1]; relative to levels normally associated with gemcitabine): less than half
